# According to patent US20220128542A1, “TREATMENT EFFICIENCY EVALUATION” (TX MEDIC AB, priority 2019, published 2022):
# Test system: brain of rats subjected to severe traumatic brain injury (sTBI)
# Assay: Ingenuity pathway analysis of differentially regulated genes after sTBI (canonical pathways, diseases and molecular functions; Example 4)
# Design: species or system rat
# Conditions: 2 days after TBI
# Protocol: Pathway analysis of the differentially regulated genes was carried out using the Ingenuity pathway analysis package. The analysis was performed with special reference to pathways and molecular processes and diseases associated with neurodegenerative disease, including dementia, Alzheimer's disease, ALS, TBI and stroke, and with scarring and fibrosis, including glaucoma and normal pressure hydrocephalus (NPH) after subarachnoid haemorrhage.
# [1] = TBI + 1 mg/kg LMW-DS relative to control
substance,measurement,setting,value
sodium salt of dextran sulfate [LMW-DS],"Abdominal cancer (disease/function), z score",TBI + 1 mg/kg LMW-DS,−1.538
same,"Abdominal carcinoma (disease/function), z score",TBI + 1 mg/kg LMW-DS,−1.715
same,"Abdominal neoplasm (disease/function), z score",TBI + 1 mg/kg LMW-DS,−0.154
same,"Activation of blood cells (disease/function), z score",TBI + 1 mg/kg LMW-DS,0.086
same,"Activation of cells (disease/function), z score",TBI + 1 mg/kg LMW-DS,0.836
same,"Activation of leukocytes (disease/function), z score",TBI + 1 mg/kg LMW-DS,0.086
same,"Activation of lymphocytes (disease/function), z score",TBI + 1 mg/kg LMW-DS,−1.158
same,"Adhesion of tumor cell lines (disease/function), z score",TBI + 1 mg/kg LMW-DS,2.074
same,"Apoptosis (disease/function), z score",TBI + 1 mg/kg LMW-DS,−0.337
same,"Apoptosis of muscle cells (disease/function), z score",TBI + 1 mg/kg LMW-DS,0.041
same,"Behavior (disease/function), z score",TBI + 1 mg/kg LMW-DS,1.334
same,"Binding of tumor cell lines (disease/function), z score",TBI + 1 mg/kg LMW-DS,2.397
same,"Carcinoma (disease/function), z score",TBI + 1 mg/kg LMW-DS,−0.127
same,"Cell death (disease/function), z score",TBI + 1 mg/kg LMW-DS,−0.793
same,"Cell death of blood cells (disease/function), z score",TBI + 1 mg/kg LMW-DS,1.082
same,"Cell death of immune cells (disease/function), z score",TBI + 1 mg/kg LMW-DS,1.001
same,"Cell movement (disease/function), z score",TBI + 1 mg/kg LMW-DS,1.948
same,"Cell movement of muscle cells (disease/function), z score",TBI + 1 mg/kg LMW-DS,−0.26
same,"Cell movement of vascular smooth muscle cells (disease/function), z score",TBI + 1 mg/kg LMW-DS,−0.588
same,"Cell proliferation of T lymphocytes (disease/function), z score",TBI + 1 mg/kg LMW-DS,−1.097
same,"Cellular homeostasis (disease/function), z score",TBI + 1 mg/kg LMW-DS,0.19
same,"Development of connective tissue cells (disease/function), z score",TBI + 1 mg/kg LMW-DS,−0.332
same,"Differentiation of bone cells (disease/function), z score",TBI + 1 mg/kg LMW-DS,−0.341
same,"Differentiation of connective tissue cells (disease/function), z score",TBI + 1 mg/kg LMW-DS,0.73
same,"Differentiation of hematopoietic progenitor cells (disease/function), z score",TBI + 1 mg/kg LMW-DS,0.487
same,"Differentiation of osteoclasts (disease/function), z score",TBI + 1 mg/kg LMW-DS,−0.223
same,"Digestive organ tumor (disease/function), z score",TBI + 1 mg/kg LMW-DS,−0.604
same,"Experimentally-induced arthritis (disease/function), z score",TBI + 1 mg/kg LMW-DS,−0.816
same,"Extracranial solid tumor (disease/function), z score",TBI + 1 mg/kg LMW-DS,0.056
same,"Genital tumor (disease/function), z score",TBI + 1 mg/kg LMW-DS,0.13
same,"IL-1 Signaling canonical pathway, effect",TBI + 1 mg/kg LMW-DS,Inhibited
same,"Incidence of tumor (disease/function), z score",TBI + 1 mg/kg LMW-DS,−1.131
same,"Inflammation of absolute anatomical region (disease/function), z score",TBI + 1 mg/kg LMW-DS,−1.359
same,"Inflammation of body cavity (disease/function), z score",TBI + 1 mg/kg LMW-DS,−1.757
same,"Inflammation of joint (disease/function), z score",TBI + 1 mg/kg LMW-DS,−0.053
same,"Inflammation of organ (disease/function), z score",TBI + 1 mg/kg LMW-DS,−1.295
same,"Inflammatory response (disease/function), z score",TBI + 1 mg/kg LMW-DS,1.159
same,"Interaction of mononuclear leukocytes (disease/function), z score",TBI + 1 mg/kg LMW-DS,1.626
same,"Leukocyte migration (disease/function), z score",TBI + 1 mg/kg LMW-DS,1.296
same,"Leukopoiesis (disease/function), z score",TBI + 1 mg/kg LMW-DS,1.185
same,"Lymphopoiesis (disease/function), z score",TBI + 1 mg/kg LMW-DS,0.583
same,"Malignant solid tumor (disease/function), z score",TBI + 1 mg/kg LMW-DS,−0.562
same,"Migration of cells (disease/function), z score",TBI + 1 mg/kg LMW-DS,2.093
same,"Necrosis (disease/function), z score",TBI + 1 mg/kg LMW-DS,−0.361
same,"Non-hematologic malignant neoplasm (disease/function), z score",TBI + 1 mg/kg LMW-DS,−0.243
same,"Osteoarthritis Pathway canonical pathway, effect",TBI + 1 mg/kg LMW-DS,Inhibited
same,"Pelvic tumor (disease/function), z score",TBI + 1 mg/kg LMW-DS,−0.651
same,"Proliferation of blood cells (disease/function), z score",TBI + 1 mg/kg LMW-DS,−1.083
same,"Proliferation of lymphatic system cells (disease/function), z score",TBI + 1 mg/kg LMW-DS,−1.112
same,"Proliferation of lymphocytes (disease/function), z score",TBI + 1 mg/kg LMW-DS,−0.852
same,"Quantity of blood cells (disease/function), z score",TBI + 1 mg/kg LMW-DS,−1.479
same,"Quantity of bone (disease/function), z score",TBI + 1 mg/kg LMW-DS,−1.985
same,"Quantity of cells (disease/function), z score",TBI + 1 mg/kg LMW-DS,−0.765
same,"Quantity of connective tissue cells (disease/function), z score",TBI + 1 mg/kg LMW-DS,0.637
same,"Quantity of leukocytes (disease/function), z score",TBI + 1 mg/kg LMW-DS,−1.163
same,"Quantity of lymphatic system cells (disease/function), z score",TBI + 1 mg/kg LMW-DS,−0.701
same,"Quantity of phagocytes (disease/function), z score",TBI + 1 mg/kg LMW-DS,−2.061
same,"Rheumatic Disease (disease/function), z score",TBI + 1 mg/kg LMW-DS,−0.053
same,"Role of NFAT in Regulation of the Immune Response canonical pathway, effect",TBI + 1 mg/kg LMW-DS,Activated
same,"Solid tumor (disease/function), z score",TBI + 1 mg/kg LMW-DS,−0.186
same,"Survival of organism (disease/function), z score",TBI + 1 mg/kg LMW-DS,−0.095
same,"Synthesis of hormone (disease/function), z score",TBI + 1 mg/kg LMW-DS,0.977
same,"Thrombus (disease/function), z score",TBI + 1 mg/kg LMW-DS,1
same,"Transcription of RNA (disease/function), z score",TBI + 1 mg/kg LMW-DS,1.519
same,"Transport of molecule (disease/function), z score",TBI + 1 mg/kg LMW-DS,2.421
same,"IL-1 Signaling canonical pathway, z score",[1],−1
same,"Osteoarthritis Pathway canonical pathway, z score",[1],−1.342
same,"Role of NFAT in Regulation of the Immune Response canonical pathway, z score",[1],0.378
same,"Abdominal cancer (disease/function), z score",TBI + 5 mg/kg LMW-DS,−2.553
same,"Abdominal carcinoma (disease/function), z score",TBI + 5 mg/kg LMW-DS,−2.631
same,"Abdominal neoplasm (disease/function), z score",TBI + 5 mg/kg LMW-DS,−0.927
same,"Adrenomedullin Signaling pathway canonical pathway, effect",TBI + 5 mg/kg LMW-DS,Inhibited
